Consider 10 molecules from US7238725B2, “Tricyclic compounds useful for the treatment of inflammatory and allergic disorders: process for their preparation and pharmaceutical compositions containing them” (Glenmark Pharmaceuticals Ltd., priority 2002, dated 2007).

Like-named read-outs stand apart in the source and are kept apart here.

For one data set, the target named is PDE4 enzyme. Kind of data set: Inhibition of Phosphodiesterase Enzymes (PDE4), [3H]cAMP hydrolysis. In kind it is biochemical. The method, then:
Inhibition of Phosphodiesterase Enzymes (PDE4)
In this assay, PDE4 enzyme converts [^3H] cAMP to the corresponding [^3H] 5′-AMP in proportion to the amount of PDE4 present The [^3H] 5′-AMP then was quantitatively converted to free [^3H] adenosine and phosphate by the action of snake venom 5′-nucleotidase.
The assay was performed with modification of the method of Thompson and Appleman (Biochemistry; 1971; 10; 311-316) and Schwartz and Passoneau (Proc. Natl. Acad. Sci. U.S.A. 1974; 71; 3844-3848), both references incorporated herein by reference in their entirety, at 34° C. In a 200 ul total reaction mixture, the reaction mixture contained 12.5 mM of Tris, 5 mM MgCl2, 1 μM cAMP (cold) and ^3H cAMP (0.1 uCi), (Amersham). […] Drug samples were then added in the reaction mixture (25 μl/tube). The assay was initiated by addition of enzyme mix (75 μl) and the mixture was incubated for 20 minutes at 34° C. The reaction was stopped by boiling the tubes for 2 mins at 100° C. in a water bath. After cooling on ice for 5 minutes and addition of 50 ug/reaction of 5′-nucleotidase snake venom from Crotalus atrox incubation was carried out again for 20 min. at 34° C. The unreacted substrate was separated from (^3H) Adenosine by addition of Dowex AG 1-X8 (Biorad Lab), (400 ul) which was prequilibrated (1:1:1) in water and ethanol. Reaction mixture was then thoroughly mixed, placed on ice for 15 minutes, vortexed and centrifuged at 14,000 r.p.m. for 2 mins. After centrifugation, a sample of the supernatant was taken and added in 24 well optiplates containing Scintillant (1 ml) and mixed well. The samples in the plates were then determined for radioactivity in a Top Counter and the PDE4 activity was estimated. PDE4 enzyme was present in quantities that yield <30% total hydrolysis of substrate (linear assay conditions).
(§1) Results were expressed as percent inhibition (IC50) in nM concentrations. The IC50 values were determined from the concentration curves by nonlinear regression analysis.
The IC50 value for the compound examined was determined from concentration-response curves in which varying range of concentrations were considered as shown in table 1

Another data set deals with PDE4. Kind of data set: Cell Based Assay for PDE4 Inhibition: cAMP elevation in whole U937 cells. As to conditions: 1 μM PGE1, normalized over PGE1. The method, then: Cell Based Assay for PDE4 Inhibition:
cAMP elevation studies were conducted in whole U937 cells. U937 cells (ATCC) were grown in RPMI medium containing 10% FBS, 1% pen-strep solution, 1% L-glutamine for 48 hrs. On the day of assay, the cells were washed twice with plain RPM1 medium by centrifuging at 800 rpm for 5 mins. Cells were resuspended in plain RPM1 medium followed by cell number and viability assessment using a trypan blue stain. Cells (0.15-0.2 mio cells per well) were seeded in a 96 well microtitre plate and incubated with various drugs/DMSO vehicle at 37° C. for 15 min. cAMP generation was started by addition of 1 μM PGE1 for 15 mins. The incubation was terminated by addition of cell lysis buffer from cAMP estimation kit. Lysate was used for cAMP quantitatin by chemiluminescence method (DiscoveRX kits). cAMP values were normalized over PGE1. EC50 values were calculated from dose response curves by nonlinear regression analysis using PRISM software.

The target in data set [1] is PDE 1 (Ca2+/calmodulin-dependent). The data set is described as follows: Activity against other Phosphodiesterase enzymes: PDE 1. Format: biochemical. On the procedure:
(§2) Additionally, activity of the compounds were tested against other Phosphodiesterase enzymes, namely, PDE 1 (Ca^2+/calmodulin-dependent), PDE 2 (cGP-stimulated), PDE 3 (cGP-inhibited), PDE 5 (cGP-specific) and PDE 6 (cGP-specific, photoreceptor).
as §1

Another data set concerns the target PDE 2 (cGP-stimulated) (Homo sapiens, UniProt O00408). The data set is described as follows: Activity against other Phosphodiesterase enzymes: PDE 2. Format: biochemical. As to conditions: read-out: IC50 values PDE2. On the procedure:
as §2, §1

In another data set the target is PDE 3 (cGP-inhibited). Kind of data set: Activity against other Phosphodiesterase enzymes: PDE 3. To be noted: read-out: IC50 values PDE3. In kind it is biochemical. The method, then:
as §2, §1

In data set [2] the target is PDE 6 (cGP-specific, photoreceptor). Kind of data set: Activity against other Phosphodiesterase enzymes: PDE 6. Format: biochemical. The method, then:
as §2, §1

The mark [3] stands for this setting: PDE4 enzyme, 1 μM cAMP and 3H cAMP, 34° C., read-out: IC50.

A word on the IC50: it is the concentration that gives 50% inhibition. For orientation: EC50 means the concentration that produces a half-maximal response. What is called melting point is the temperature, or range, at which the solid turns liquid. Broadly, the % inhibition is the percentage by which the read-out fell short of the control.

Sequence of PDE 2 (cGP-stimulated) (O00408 whole entry): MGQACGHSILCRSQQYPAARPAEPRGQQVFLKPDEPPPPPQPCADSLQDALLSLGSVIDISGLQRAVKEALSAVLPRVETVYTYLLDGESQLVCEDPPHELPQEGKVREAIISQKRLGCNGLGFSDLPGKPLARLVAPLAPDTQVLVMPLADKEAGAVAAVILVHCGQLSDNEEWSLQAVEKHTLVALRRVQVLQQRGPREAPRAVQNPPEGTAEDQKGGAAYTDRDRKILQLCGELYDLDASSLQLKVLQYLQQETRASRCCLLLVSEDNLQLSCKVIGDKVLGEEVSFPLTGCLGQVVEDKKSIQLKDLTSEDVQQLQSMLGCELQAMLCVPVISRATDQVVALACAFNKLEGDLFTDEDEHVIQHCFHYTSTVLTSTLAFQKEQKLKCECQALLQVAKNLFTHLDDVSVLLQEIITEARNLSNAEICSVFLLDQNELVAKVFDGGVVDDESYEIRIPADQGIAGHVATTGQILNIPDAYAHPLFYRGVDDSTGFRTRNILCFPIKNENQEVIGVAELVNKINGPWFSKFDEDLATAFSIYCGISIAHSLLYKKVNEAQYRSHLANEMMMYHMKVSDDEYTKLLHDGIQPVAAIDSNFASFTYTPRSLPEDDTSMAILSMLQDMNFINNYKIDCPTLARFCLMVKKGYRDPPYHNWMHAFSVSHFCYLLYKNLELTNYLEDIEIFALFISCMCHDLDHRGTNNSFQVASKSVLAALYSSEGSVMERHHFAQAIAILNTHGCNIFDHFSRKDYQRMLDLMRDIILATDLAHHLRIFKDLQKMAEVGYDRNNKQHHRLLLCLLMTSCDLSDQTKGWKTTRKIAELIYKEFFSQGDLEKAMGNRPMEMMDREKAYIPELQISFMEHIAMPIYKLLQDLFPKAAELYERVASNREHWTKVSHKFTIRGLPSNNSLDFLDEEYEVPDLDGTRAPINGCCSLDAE

In the case of `COc1ccc(C(=O)Nc2c(Cl)cncc2Cl)c2c1oc1ccc(I)cc12` [Example 45, N-(3,5-dichloropyrid-4-yl)-4-methoxy-8-iodo-dibenzo[b,d]furan-1-carboxamide], the melting point was 304 °C (dec.). On PDE4 enzyme (setting [3]), the half-inhibitory concentration (IC50) came to 4.54 nM. The same molecule registered an EC50 in the data set on PDE4 above 300 nM.
`COc1ccc(C(=O)Nc2c(Cl)cncc2Cl)c2c1oc1ccccc12` [Example 1, N-(3,5-dichloropyrid-4-yl)-4-methoxy dibenzo[b,d]furan-1-carboxamide] returned a melting point of 302 °C. For the same molecule, the IC50 on PDE4 enzyme (setting [3]) was found to be 0.8 nM. Also, the IC50 on PDE4 enzyme (Table 1, read-out: IC50 values PDE4) was determined as 0.8 nM. The midpoint of the response in the data set with PDE4, the EC50, lay at 83.7 nM. Moreover, the “% inhibition at 100 µM” value in data set [1] came out at 44%. Further, the 50% inhibitory concentration (IC50) at PDE 2 (cGP-stimulated) was determined as 69100 nM. On PDE 3 (cGP-inhibited), the IC50 turned out to be 61800 nM. For the same molecule, in data set [2], the “% inhibition at 100 µM” value amounted to 36%.
`COc1ccc(C(=O)Nc2c(Cl)cncc2Cl)c2c1oc1ccc(N)cc12` [Example 55, N-(3,5-dichloropyrid-4-yl)-4-methoxy-8-amino-dibenzo[b,d]furan-1-carboxamide]: the melting point is 249 °C (dec.). Further, the IC50 at PDE4 enzyme (setting [3]) came out at 1.2 nM. The EC50 in the data set with PDE4 was 47.5 nM.
The corresponding values for `O=C(Nc1c(Cl)cncc1Cl)c1ccc(OC(F)F)c2oc3ccc(C(F)(F)F)cc3c12` [Example 12, N-(3,5-dichloropyrid-4-yl)-4-difluoromethoxy-8-trifluoromethyl dibenzo[b,d]furan-1-carboxamide] are 228 °C, 1.21 nM and 140 nM.
The corresponding values for `COc1ccc(C(=O)Nc2c(Cl)cncc2Cl)c2c1oc1ccc(Br)cc12` [Example 42, N-(3,5-dichloropyrid-4-yl)-4-methoxy-8-bromo-dibenzo[b,d]furan-1-carboxamide] are 308 °C, 4.92 nM and 44.2 nM.
In turn, `O=C(Nc1c(Cl)cncc1Cl)c1ccc(OC(F)F)c2oc3ccc([N+](=O)[O-])cc3c12` [Example 58, N-(3,5-dichloropyrid-4-yl)-4-difluoromethoxy-8-nitro-dibenzo[b,d]furan-1-carboxamide] gave a melting point above 270 °C. The half-inhibitory concentration (IC50) at PDE4 enzyme (setting [3]) was 10 nM. In the data set on PDE4, a half-maximal response (EC50) required 148 nM.
Molecule `COc1ccc(C(=O)Nc2c(Cl)c[n+]([O-])cc2Cl)c2c1oc1ccccc12` [Example 2, N-(3,5-dichloropyrid-4-yl)-4-methoxy dibenzo[b,d]furan-1-carboxamide-N1-oxide] gave a melting point of 265 to 270 °C. The molecule also came in with an EC50 in the data set with PDE4 of 23.8 nM.
Molecule `COc1ccc(C(=O)Nc2c(Cl)cncc2Cl)c2c1oc1ccc(Cl)cc12` [Example 41, N-(3,5-dichloropyrid-4-yl)-4-methoxy-8-chloro-dibenzo[b,d]furan-1-carboxamide] gave a melting point of 300 °C. Also, on PDE4 enzyme (setting [3]), the IC50 was found to be 0.839 nM. Further, the EC50 in the data set on PDE4 is 200 nM.
The like results for `O=C(Nc1c(Cl)cncc1Cl)c1ccc(OC(F)F)c2oc3ccccc3c12` [Example 19, N-(3,5-dichloropyrid-4-yl)-4-difluoromethoxy dibenzo[b,d]furan-1-carboxamide] were, in that order, 270 °C, 2.54 nM and 20.4 nM.
The molecule `Nc1ccc2oc3c(OC(F)F)ccc(C(=O)Nc4c(Cl)cncc4Cl)c3c2c1` [Example 59, N-(3,5-dichloropyrid-4-yl)-4-difluoromethoxy-8-amino-dibenzo[b,d]furan-1-carboxamide] had a melting point above 270 °C. For the same molecule, the concentration for half-maximal inhibition (IC50) on PDE4 enzyme (setting [3]) was determined as 4.47 nM. In addition, in the data set on PDE4, the EC50 amounted to 49.2 nM.
